Measurements from ChEMBL document CHEMBL3885881, “DrugMatrix”.

Species on record: Rattus norvegicus
Assay: DrugMatrix - Regimen: Daily Repeat
Format: toxicity, organism-based, Sprague-Dawley
Design: regimen Daily Repeat, gender Male, age 6-8 weeks
Details: in vivo, iv, vehicle 100 % SALINE; for ABSOLUTE BASOPHIL / ABSOLUTE EOSINOPHIL / ABSOLUTE LYMPHOCYTE / ABSOLUTE MONOCYTE / ABSOLUTE SEGMENTED NEUTROPHIL / BASOPHIL / EOSINOPHIL / ERYTHROCYTE COUNT / HEMATOCRIT / LEUKOCYTE COUNT / LYMPHOCYTE / MEAN CORPUSCULAR HEMOGLOBIN / MEAN CORPUSCULAR HEMOGLOBIN CONCENTRATION / MEAN CORPUSCULAR VOLUME / MONOCYTE / NEUTROPHIL / NUCLEATED RED BLOOD CELLS / PLATELET COUNT / HEMOGLOBIN: tissue Blood
[1] = 0 mg/kg, 72 h, dose level Control, time 3 day
[2] = 0 mg/kg, 72 h, tissue Plasma, dose level Control, time 3 day
[3] = 0 mg/kg, 120 h, dose level Control, time 5 day
[4] = 0 mg/kg, 120 h, tissue Plasma, dose level Control, time 5 day
[5] = 8 mg/kg, 72 h, dose level High, time 3 day
[6] = 8 mg/kg, 72 h, tissue Plasma, dose level High, time 3 day
[7] = 8 mg/kg, 120 h, dose level High, time 5 day
[8] = 8 mg/kg, 120 h, tissue Plasma, dose level High, time 5 day

OXALIPLATIN
ABSOLUTE BASOPHIL [1]: 0 CELLS/uL | ABSOLUTE EOSINOPHIL [1]: 0 CELLS/uL | ABSOLUTE LYMPHOCYTE [1]: 7637.67 CELLS/uL | ABSOLUTE MONOCYTE [1]: 67.83 CELLS/uL | ABSOLUTE SEGMENTED NEUTROPHIL [1]: 661.17 CELLS/uL | BASOPHIL [1]: 0% | EOSINOPHIL [1]: 0% | ERYTHROCYTE COUNT [1]: 5.38 x10E6/uL | HEMATOCRIT [1]: 33.67% | LEUKOCYTE COUNT [1]: 8.37 x10E3/uL | LYMPHOCYTE [1]: 91.17% | MEAN CORPUSCULAR HEMOGLOBIN [1]: 23.95 pg | MEAN CORPUSCULAR HEMOGLOBIN CONCENTRATION [1]: 38.23 G/DL | MEAN CORPUSCULAR VOLUME [1]: 62.6 fL | MONOCYTE [1]: 0.83% | NEUTROPHIL [1]: 8% | NUCLEATED RED BLOOD CELLS [1]: 0.17 /100WBC | PLATELET COUNT [1]: 865 x10E3/uL | ALANINE AMINOTRANSFERASE [2]: 51.67 u/L | ALKALINE PHOSPHATASE [2]: 351.17 u/L | ASPARTATE AMINOTRANSFERASE [2]: 82.33 u/L | BLOOD UREA NITROGEN [2]: 15.17 mg/dL | CARBON DIOXIDE [2]: 34.5 mmol/L | CHLORIDE [2]: 100 MEQ/L | CHOLESTEROL [2]: 80.33 mg/dL | CREATINE PHOSPHOKINASE [2]: 316.5 u/L | CREATININE [2]: 0.17 mg/dL | LACTATE DEHYDROGENASE [2]: 105.67 u/L | LIPASE [2]: 9.5 u/L | PHOSPHORUS [2]: 10.87 mg/dL | POTASSIUM [2]: 5.47 MEQ/L | TOTAL BILIRUBIN [2]: 0.2 mg/dL | TOTAL PROTEIN [2]: 5.83 G/DL | URIC ACID [2]: 0.83 mg/dL | ABSOLUTE BASOPHIL [3]: 0 CELLS/uL | ABSOLUTE EOSINOPHIL [3]: 0 CELLS/uL | ABSOLUTE LYMPHOCYTE [3]: 6333.5 CELLS/uL | ABSOLUTE MONOCYTE [3]: 38.83 CELLS/uL | ABSOLUTE SEGMENTED NEUTROPHIL [3]: 661 CELLS/uL | BASOPHIL [3]: 0% | EOSINOPHIL [3]: 0% | ERYTHROCYTE COUNT [3]: 5.44 x10E6/uL | HEMATOCRIT [3]: 34.17% | HEMOGLOBIN [3]: 13.22 G/DL | LEUKOCYTE COUNT [3]: 7.03 x10E3/uL | LYMPHOCYTE [3]: 90.17% | MEAN CORPUSCULAR HEMOGLOBIN [3]: 24.38 pg | MEAN CORPUSCULAR HEMOGLOBIN CONCENTRATION [3]: 38.7 G/DL | MEAN CORPUSCULAR VOLUME [3]: 62.95 fL | MONOCYTE [3]: 0.5% | NUCLEATED RED BLOOD CELLS [3]: 0 /100WBC | PLATELET COUNT [3]: 924.33 x10E3/uL | ALANINE AMINOTRANSFERASE [4]: 52.5 u/L | ALKALINE PHOSPHATASE [4]: 364.83 u/L | ASPARTATE AMINOTRANSFERASE [4]: 82.5 u/L | BLOOD UREA NITROGEN [4]: 17 mg/dL | CARBON DIOXIDE [4]: 32.33 mmol/L | CHLORIDE [4]: 99.6 MEQ/L | CHOLESTEROL [4]: 75.83 mg/dL | CREATINE PHOSPHOKINASE [4]: 419 u/L | CREATININE [4]: 0.21 mg/dL | GLUCOSE [4]: 155 mg/dL | LIPASE [4]: 11.33 u/L | PHOSPHORUS [4]: 10.32 mg/dL | POTASSIUM [4]: 5.37 MEQ/L | TOTAL BILIRUBIN [4]: 0.18 mg/dL | TOTAL PROTEIN [4]: 5.98 G/DL | URIC ACID [4]: 0.62 mg/dL | ABSOLUTE BASOPHIL [5]: 0 CELLS/uL | ABSOLUTE EOSINOPHIL [5]: 0 CELLS/uL | ABSOLUTE LYMPHOCYTE [5]: 4377.33 CELLS/uL | ABSOLUTE MONOCYTE [5]: 16.67 CELLS/uL | ABSOLUTE SEGMENTED NEUTROPHIL [5]: 339.33 CELLS/uL | BASOPHIL [5]: 0% | EOSINOPHIL [5]: 0% | ERYTHROCYTE COUNT [5]: 5.41 x10E6/uL | HEMATOCRIT [5]: 33.23% | HEMOGLOBIN [5]: 12.83 G/DL | LEUKOCYTE COUNT [5]: 4.73 x10E3/uL | LYMPHOCYTE [5]: 92.67% | MEAN CORPUSCULAR HEMOGLOBIN CONCENTRATION [5]: 38.63 G/DL | MONOCYTE [5]: 0.33% | NEUTROPHIL [5]: 7% | NUCLEATED RED BLOOD CELLS [5]: 0 /100WBC | PLATELET COUNT [5]: 1068.33 x10E3/uL | ALANINE AMINOTRANSFERASE [6]: 44.67 u/L | ALBUMIN [6]: 4.3 G/DL | ALKALINE PHOSPHATASE [6]: 356.33 u/L | ASPARTATE AMINOTRANSFERASE [6]: 77.33 u/L | BLOOD UREA NITROGEN [6]: 16.67 mg/dL | CARBON DIOXIDE [6]: 34.33 mmol/L | CHLORIDE [6]: 99 MEQ/L | CHOLESTEROL [6]: 76 mg/dL | CREATINE PHOSPHOKINASE [6]: 301 u/L | CREATININE [6]: 0.12 mg/dL | LACTATE DEHYDROGENASE [6]: 153.67 u/L | POTASSIUM [6]: 5.69 MEQ/L | TOTAL BILIRUBIN [6]: 0.2 mg/dL | TOTAL PROTEIN [6]: 6.2 G/DL | URIC ACID [6]: 0.67 mg/dL | ABSOLUTE BASOPHIL [7]: 0 CELLS/uL | ABSOLUTE EOSINOPHIL [7]: 0 CELLS/uL | ABSOLUTE LYMPHOCYTE [7]: 3427.33 CELLS/uL | ABSOLUTE MONOCYTE [7]: 20 CELLS/uL | ABSOLUTE SEGMENTED NEUTROPHIL [7]: 186 CELLS/uL | BASOPHIL [7]: 0% | EOSINOPHIL [7]: 0% | ERYTHROCYTE COUNT [7]: 5.56 x10E6/uL | HEMATOCRIT [7]: 33.2% | HEMOGLOBIN [7]: 12.67 G/DL | LEUKOCYTE COUNT [7]: 3.63 x10E3/uL | LYMPHOCYTE [7]: 93.33% | MEAN CORPUSCULAR HEMOGLOBIN [7]: 22.77 pg | MEAN CORPUSCULAR HEMOGLOBIN CONCENTRATION [7]: 38.17 G/DL | MONOCYTE [7]: 0.67% | NEUTROPHIL [7]: 6% | NUCLEATED RED BLOOD CELLS [7]: 0.33 /100WBC | PLATELET COUNT [7]: 976 x10E3/uL | ALANINE AMINOTRANSFERASE [8]: 50 u/L | ALKALINE PHOSPHATASE [8]: 285.67 u/L | ASPARTATE AMINOTRANSFERASE [8]: 73.67 u/L | BLOOD UREA NITROGEN [8]: 16.67 mg/dL | CARBON DIOXIDE [8]: 33.67 mmol/L | CHLORIDE [8]: 98 MEQ/L | CHOLESTEROL [8]: 68.33 mg/dL | CREATINE PHOSPHOKINASE [8]: 268.33 u/L | CREATININE [8]: 0.16 mg/dL | GLUCOSE [8]: 141 mg/dL | LACTATE DEHYDROGENASE [8]: 86 u/L | LIPASE [8]: 9 u/L | PHOSPHORUS [8]: 9 mg/dL | POTASSIUM [8]: 5.38 MEQ/L | TOTAL BILIRUBIN [8]: 0.13 mg/dL | TOTAL PROTEIN [8]: 6.33 G/DL | URIC ACID [8]: 0.6 mg/dL
